Assay results reported in article PMC8006935, “Study of Combinatorial Drug Synergy of Novel Acridone Derivatives With Temozolomide Using in-silico and in-vitro Methods in the Treatment of Drug-Resistant Glioma” (Frontiers in Oncology, 2021).
Like-named read-outs stand apart in the source and are kept apart here.

Legend:
[1] = system: T-98 (Temozolomide resistant) Glioma cell lines; test: Sulforhodamine B assay, T-98 TMZ resistant Glioma cells; type: cell-based; details: for IC50: Glioma cell
Description: (§1) In order to test the growth inhibition potential of the TMZ and Acridone derivatives on Glioma, the U-87 (Uppsala 87) Glioma cell lines and T-98 (Temozolomide resistant) Glioma cell lines were treated with Temozolomide (TMZ) and Acridone derivatives AC2, AC7, and AC26. The African Green Monkey Kidney Vero cell lines were used as control for the study. The Vero cell lines were obtained from the National Center for Cell Sciences (NCCS), Pune, while the U-87 and T-98 cell lines were carried in the lab of Dr. GJ Peters, Cancer Center Amsterdam (CCA), VU University Medical Center, Amsterdam, Netherlands. The Mycoplasma testing was done by using the Universal Mycoplasma Detection Kit (ATCC® 30-1012K™) every 6 months. The Vero cell lines have been used as control as they are normal kidney epithelial cells and are non-cancerous in nature. The Vero cell lines have been routinely used for testing cytotoxicity of small molecules by various researchers ([22], [23]). Also, in our previous study, Vero cell lines have been used for testing safety and efficacy of Acridone derivatives for Lung, Cervical, and Breast Cancer studies ([13]).
(§2) Cell viability was found using the Sulforhodamine B (SRB) assay to measure the cellular protein content which provides better sensitivity in comparison to MTT assay ([24]). Moreover, as this method is dependent on the property of the SRB dye, it acts by binding to proteins under slightly acidic conditions and can be exposed to basic conditions for its extraction. The resulting amount of bound dye is then utilized as a proxy for cell mass ([25]). This cell mass can then be extrapolated to measure cell growth.
(§3) Glioma cells were cultured in Gibco (RPMI 1640) complemented with 10% fetal calf serum (Gibco). The cultures were then treated with trypsin-EDTA in order to detach/separate the cells from their culture flasks. The quickly proliferating cells were harvested, counted and plated at suitable concentrations in 96-well microplates. These microplates were subsequently incubated for 24 h. After incubation, drug compounds were dissolved in the culture media and placed in 96 well plates in triplicates, which were again incubated at 37°C under 5% CO2 for 72 h. 72 h later, the plates were removed and the cells were treated with cold Trichloroacetic acid (TCA) to fix the cultures and. 0.4% of SRB dissolved in 1% acetic acid was then added to the culture in order to stain the cells. Next, the bound stain was dissolved in 150 μl of 10 mM unbuffered Tris base left on a gyrator shaker. Thereafter, absorbance of the solution was measured at 540 nm utilizing a microplate reader. Absorbance readings (triplicate values) recorded were used to calculate percentage growth inhibition due to the effect of drugs using the following equations.
(§4) % Cell growth = Absorbance sample/Absorbance of control or untreated × 100
(§5) % Growth inhibition = 100 - % cell growth
(§6) The IC50 was calculated based on the log graph sheet which was developed in-house at the CCA, VU University Medical Center.
(§7) Selectivity Index (SI) is a ratio that measures the window between cytotoxicity and anticancer activity of the drugs ([26]). […] Here, IC50 is the inhibition concentration for inhibiting 50% of cancer cells and CC50 is cytotoxic concentration causing death of 50% viable cells in the host.

[2] = system: Glioma; design: method as in PMID 19046047; details: administered along with surgery and radiotherapy; cited from earlier work
[3] = design: method as in PMID 18971416; details: equation proposed by Levin-log permeability; cited from earlier work
[4] = design: method as in PMID 20925470; details: high doses; cited from earlier work
[5] = system: U-87 (Uppsala 87) Glioma cell lines; test: Sulforhodamine B assay, U-87 drug sensitive Glioma cells; type: cell-based
Description: as §1, §2, §3, §4, §5, §6, §7

[6] = system: Drug resistant cancer cells (CR), T-98; test: Mathematical tumor growth model simulation and Bliss synergy, drug resistant cancer cells
[7] = Sulforhodamine B assay, Vero control cells; type: cell-based; details: African green monkey, Vero cells (normal kidney epithelial cells), SRB, read-out: Vero cell Line CC50
Description: as §1, §2
as §3, with “0.4% of SRB dissolved in 1% acetic acid was then added to the culture in order to stain the cells. Next, the bound stain was dissolved in 150 μl of 10 mM unbuffered Tris base left on a gyrator shaker.” left out
% Cell growth = Absorbance sample/Absorbance of control or untreated × 100 […]
The IC50 was calculated based on the log graph sheet which was developed in-house at the CCA, VU University Medical Center. […]

[8] = SI = CC50 of Vero cell line /IC50 of Cancer cell line after 72 h

IC50 ([1]; 72 h, SRB, Mean ± Standard Deviations in Table 4, read-out: T-98/TMZRES IC50): > 100 µM
IC50 ([1]; drug administered individually, drug resistant cells, read-out: Initial IC50): 190 µM
IC50 ([5]; U87WT, 72 h, SRB, Mean ± Standard Deviations in Table 4, read-out: U-87/WT IC50): 23.3 ± 7.57 µM
Fold change = final IC50/initial IC50 ([6]; combination TMZ + AC2): 0.19
Fold change = final IC50/initial IC50 ([6]; combination TMZ + AC7): 0.24
Fold change = final IC50/initial IC50 ([6]; combination TMZ + AC26): 0.54
Structure (SMILES): Cn1nnc2c(C(N)=O)ncn2c1=O [TMZ, 3-Methyl-4-oxo-3,4-dihydroimidazo[5,1-d][1,2,3,5]tetrazine-8-carboxamide]
T-98/TMZRES SI [1, 8]: 2.53
Relative growth, experimental data for T-98 cell line ([1]; TMZ dose 0.5): 98.26%
Relative growth, experimental data for T-98 cell line ([1]; TMZ dose 1): 97.74%
Relative growth, experimental data for T-98 cell line ([1]; TMZ dose 2.5): 96.65%
Relative growth, experimental data for T-98 cell line ([1]; TMZ dose 5): 95%
Relative growth, experimental data for T-98 cell line ([1]; TMZ dose 10): 87.43%
Relative growth, experimental data for T-98 cell line ([1]; TMZ dose 25): 61.98%
Relative growth, experimental data for T-98 cell line ([1]; TMZ dose 50): 52.77%
Relative growth, experimental data for T-98 cell line ([1]; TMZ dose 100): 50.87%
increase of survival advantage [2]: 2.5 times
brain capillary permeability [3]: ~27 nm/s
dose leading to severe toxicity [4]: more than 250 μM
U-87/WT SI [5, 8]: 20.66
Relative growth, experimental data for U-87 cell line ([5]; TMZ dose 0.5): 98.47%
Relative growth, experimental data for U-87 cell line ([5]; TMZ dose 1): 97.76%
Relative growth, experimental data for U-87 cell line ([5]; TMZ dose 2.5): 97%
Relative growth, experimental data for U-87 cell line ([5]; TMZ dose 5): 94.93%
Relative growth, experimental data for U-87 cell line ([5]; TMZ dose 10): 87.32%
Relative growth, experimental data for U-87 cell line ([5]; TMZ dose 25): 50.41%
Relative growth, experimental data for U-87 cell line ([5]; TMZ dose 50): 47.71%
Relative growth, experimental data for U-87 cell line ([5]; TMZ dose 100): 40.87%
% fold change [(final-initial)/initial]*100 ([6]; combination TMZ + AC2): 80.8%
% fold change [(final-initial)/initial]*100 ([6]; combination TMZ + AC7): 75.68%
CC50 at 72 h [7]: 482 µM
